The values that follow are results of earlier work, collected in patent US8183227B1, “Compositions, kits and methods for nutrition supplementation” (Chemo S. A. France, priority 2011, dated 2012).

For the data set the following is noted: intake of about 1000 IU per day, all adults.

With `C=C1CC[C@H](O)C/C1=C/C=C1\CCC[C@]2(C)[C@@H]([C@H](C)CCCC(C)C)CC[C@@H]12` [vitamin D3, cholecalciferol], the “share of the population brought up to the 30 ng/ml serum range for 25-hydroxyvitamin D” value is given as “at least 50 % of the population”.
